In BindingDB's records for doi:10.1021/jm950874+ (National Institutes of Health, 1996):

biological target: T1, Dimer of Gag-Pol polyprotein [489-587] (Human immunodeficiency virus 1, UniProt P12497); assay: Protease Inhibition Assay; details: pH 6.5; 37 °C
T1 construct: 489-587
Experimental: Sensitivity of HIV-1 protease activity to protease inhibitors was determined by a peptide substrate cleavage assay. Protease products were analyzed on a reverse-phase high-pressure liquid chromatograph.

Q: `CC(=O)OC1CCC2(C)C(C)C(C)CCC2(O)C1O` (stereo not drawn) [Cancer Chemotherapy National Service Center (CCNSC) compound 112500] was tested. Which IC50 did it give?
A: Its IC50 is 16 µM.

Q: For `CC(=O)NC(Cc1ccsc1)(C(=O)O)C(=O)O` [2-acetamido-2-(thiophen-3-ylmethyl)propanedioic acid], which IC50 is on record?
A: Its IC50 is 23 µM.

Q: `CC1(C)CC[C@]2(C(=O)O)CC[C@@]3(C)C(=CC[C@H]4[C@@]5(C)C[C@H](O)[C@H](O)[C@](C)(C(=O)O)[C@H]5CC[C@]43C)[C@@H]2C1` [(2S,3R,4R,4aS,6aR,6bR,8aS,12aS,14aS,14bR)-2,3-dihydroxy-4,6a,6b,11,11,14b-hexamethyl-1,2,3,4,4a,5,6,6a,6b,7,8,8a,9,10,11,12,12a,14,14a,14b-icosahydropicene-4,8a-dicarboxylic acid] was tested. Which IC50 did it give?
A: Its IC50 is 35 µM.

Q: Which IC50 does the source give for `O=c1oc2ccccc2c(O)c1-c1ccccc1` [Cancer Chemotherapy National Service Center (CCNSC) compound 251152] here?
A: Its IC50 is 42 µM.

Q: How did the IC50 turn out when `O=c1oc2c(-c3ccccc3)cccc2c(O)c1-c1ccccc1` [Cancer Chemotherapy National Service Center (CCNSC) compound 251150] was run?
A: Its IC50 is 13 µM.

Q: How did the IC50 turn out when `O=C1C2=C(C(=O)c3ccccc31)C(O)(S(=O)(=O)O)C(O)(S(=O)(=O)O)C1N=CC=CC21` (stereo not drawn) [11,12-dihydroxy-5,10-dioxo-4a,5,10,11,12,12a-hexahydro-1-azatetraphene-11,12-disulfonic acid] was run?
A: Its IC50 is 2 µM.

Q: For `O=C(Oc1ccccc1)N(CCO)C(c1ccccc1)C(O)c1ccccc1` (stereo not drawn) [phenyl N-(2-hydroxy-1,2-diphenylethyl)-N-(2-hydroxyethyl)carbamate], which IC50 is on record?
A: Its IC50 is 32 µM.

Q: With `CCCC(=O)c1c(O)c(C)c(O)c(CC2C(=O)C(C(=O)CCC)C(=O)C(C)(C)C2=O)c1O` (stereo not drawn) [2-butanoyl-6-[(3-butanoyl-2,4,6-trihydroxy-5-methylphenyl)methyl]-3,5-dihydroxy-4,4-dimethylcyclohexa-2,5-dien-1-one] as the molecule, how does the IC50 read?
A: The IC50 was 26 µM.

Q: How did the IC50 turn out when `O=c1oc2cccc(O)c2c(O)c1Cc1ccccc1` was run?
A: The IC50 was 6 µM.

Q: `CC(C)c1cccc(C(C)C)c1NC(=O)C(=O)CC(=O)CC(c1ccccc1)c1c(O)c2ccccc2oc1=O` (stereo not drawn) [N-[2,6-bis(propan-2-yl)phenyl]-6-(4-hydroxy-2-oxo-2H-chromen-3-yl)-2,4-dioxo-6-phenylhexanamide] was tested. Which IC50 did it give?
A: The IC50 was 31 µM.

Q: Which IC50 does the source give for `O=c1oc2ccccc2c(O)c1C(c1ccc(C(c2c(O)c3ccccc3oc2=O)c2c(O)c3ccccc3oc2=O)cc1)c1c(O)c2ccccc2oc1=O` [3-({4-[bis(4-hydroxy-2-oxo-2H-chromen-3-yl)methyl]phenyl}(4-hydroxy-2-oxo-2H-chromen-3-yl)methyl)-4-hydroxy-2H-chromen-2-one] here?
A: Its IC50 is 1.7 µM.

Q: `O=C1C(=O)c2ccccc2C(=O)C1=C(c1ccc(Cl)cc1Cl)c1c(O)c(O)c2ccccc2c1O` [2-[(2,4-dichlorophenyl)(3-hydroxy-1,4-dioxo-1,4-dihydronaphthalen-2-yl)methyl]-3-hydroxy-1,4-dihydronaphthalene-1,4-dione] was tested. Which IC50 did it give?
A: The IC50 was 24 µM.

Q: With `O=c1oc2ccccc2c(O)c1C(c1ccc2c(c1)OCO2)c1c(O)c2ccccc2oc1=O` [Cancer Chemotherapy National Service Center (CCNSC) compound 373937] as the molecule, how does the IC50 read?
A: Its IC50 is 30 µM.

Q: With `O=C1C(=O)c2ccccc2C(=O)C1=C(c1ccc(C(C2C(=O)C(=O)c3ccccc3C2=O)C2C(=O)C(=O)c3ccccc3C2=O)cc1)c1c(O)c(O)c2ccccc2c1O` (stereo not drawn) [2-({4-[bis(3-hydroxy-1,4-dioxo-1,4-dihydronaphthalen-2-yl)methyl]phenyl}(3-hydroxy-1,4-dioxo-1,4-dihydronaphthalen-2-yl)methyl)-3-hydroxy-1,4-dihydronaphthalene-1,4-dione] as the molecule, how does the IC50 read?
A: Its IC50 is 0.75 µM.

Q: With `CCCCCCc1cc2c(cc1O)OC(=O)C(C(c1ccccc1)c1c(O)c3cc(CCCCCC)c(O)cc3oc1=O)C2O` (stereo not drawn) as the molecule, how does the IC50 read?
A: Its IC50 is 0.32 µM.

Q: With `O=C1Oc2ccccc2C(O)C1Sc1c(O)c2ccccc2oc1=O` (stereo not drawn) [Cancer Chemotherapy National Service Center (CCNSC) compound 41234] as the molecule, how does the IC50 read?
A: The IC50 was 21 µM.

Q: How did the IC50 turn out when `C[C@]12CCC(=O)C=C1CC[C@@H]1[C@H]2[C@@H](O)C[C@@]2(C)[C@@H]1CC[C@]2(O)C(=O)COC(=O)CCC(=O)O` [Cancer Chemotherapy National Service Center (CCNSC) compound 7576] was run?
A: Its IC50 is 27 µM.

Q: For `CC(C)CC(NC(=O)OCc1ccccc1)(C(=O)O)C(=O)O` [Cancer Chemotherapy National Service Center (CCNSC) compound 20143], which IC50 is on record?
A: Its IC50 is 17 µM.
